Experimental data from the supplement of paper PMC13207355.
± gives the standard deviation of the averaged measurements.

How the values were obtained:
Details in all cases: exposure time: 72 h
[1] = system: E13 (patient-derived glioblastoma stem cells of classical subtype); assay: surviving fraction (nuclei count normalised to DMSO); higher = more cells surviving (less toxic)
[2] = system: E21 (patient-derived glioblastoma stem cells of mesenchymal subtype); assay: as above
[3] = system: E28 (patient-derived glioblastoma stem cells of classical subtype); assay: as above
[4] = system: E31 (patient-derived glioblastoma stem cells of proneural subtype); assay: as above
[5] = system: E34 (patient-derived glioblastoma stem cells of proneural subtype); assay: as above
[6] = system: E57 (patient-derived glioblastoma stem cells of mesenchymal subtype); assay: as above
[7] = system: FT3469 (normal neural stem cell line); assay: as above
[8] = system: E13; assay: phenotypic distance (Euclidean, principal components) from DMSO controls (arbitrary units); higher = stronger morphological change
[9] = system: E21; assay: as above
[10] = system: E28; assay: as above
[11] = system: E31; assay: as above
[12] = system: E34; assay: as above
[13] = system: E57; assay: as above
[14] = system: FT3469; assay: as above
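For phenotypic distance (Euclidean, principal components) from DMSO controls in this document: cell Painting imaging in 384-well plates, CellProfiler features reduced to at least 20 principal components, Euclidean distance versus same-plate DMSO vehicle wells (0.1% v/v), median over six images per well.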
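For surviving fraction (nuclei count normalised to DMSO) in this document: nuclei counted by high-content imaging of Hoechst-stained cells in laminin-coated 384-well plates, relative to 0.1% DMSO vehicle wells, with staurosporine as cell-death control.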

Nc1nc2n[nH]nc2c(=O)[nH]1 [Azaguanine-8]
surviving fraction ([1]; 4.1 nM): 0.918
surviving fraction ([1]; 12.3 nM): 1.02
surviving fraction ([1]; 37 nM): 1.08
surviving fraction ([1]; 111.1 nM): 0.87
surviving fraction ([1]; 333.3 nM): 0.559
surviving fraction ([1]; 1000 nM): 0.581
surviving fraction ([1]; 3000 nM): 0.307
surviving fraction ([2]; 4.1 nM): 0.917
surviving fraction ([2]; 12.3 nM): 1.06
surviving fraction ([2]; 37 nM): 0.788
surviving fraction ([2]; 111.1 nM): 0.68
surviving fraction ([2]; 333.3 nM): 0.489
surviving fraction ([2]; 1000 nM): 0.429
surviving fraction ([2]; 3000 nM): 0.296
surviving fraction ([3]; 4.1 nM): 1.08
surviving fraction ([3]; 12.3 nM): 1.11
surviving fraction ([3]; 37 nM): 1.14
surviving fraction ([3]; 111.1 nM): 0.882
surviving fraction ([3]; 333.3 nM): 0.664
surviving fraction ([3]; 1000 nM): 0.574
surviving fraction ([3]; 3000 nM): 0.292
surviving fraction ([4]; 4.1 nM): 0.825
surviving fraction ([4]; 12.3 nM): 0.941
surviving fraction ([4]; 37 nM): 1.07
surviving fraction ([4]; 111.1 nM): 0.654
surviving fraction ([4]; 333.3 nM): 0.48
surviving fraction ([4]; 1000 nM): 0.225
surviving fraction ([4]; 3000 nM): 0.0814
surviving fraction ([5]; 4.1 nM): 0.988
surviving fraction ([5]; 12.3 nM): 0.839
surviving fraction ([5]; 37 nM): 0.913
surviving fraction ([5]; 111.1 nM): 0.939
surviving fraction ([5]; 333.3 nM): 0.795
surviving fraction ([5]; 1000 nM): 0.601
surviving fraction ([5]; 3000 nM): 0.563
surviving fraction ([6]; 4.1 nM): 1
surviving fraction ([6]; 12.3 nM): 0.873
surviving fraction ([6]; 37 nM): 0.831
surviving fraction ([6]; 111.1 nM): 0.605
surviving fraction ([6]; 333.3 nM): 0.459
surviving fraction ([6]; 1000 nM): 0.271
surviving fraction ([6]; 3000 nM): 0.22
surviving fraction ([7]; 4.1 nM): 0.958
surviving fraction ([7]; 12.3 nM): 1.15
surviving fraction ([7]; 37 nM): 1.2
surviving fraction ([7]; 111.1 nM): 0.987
surviving fraction ([7]; 333.3 nM): 0.881
surviving fraction ([7]; 1000 nM): 0.685
surviving fraction ([7]; 3000 nM): 0.59
phenotypic distance ([8]; 4.1 nM): 0.737
phenotypic distance ([8]; 12.3 nM): 0.508
phenotypic distance ([8]; 37 nM): 1.23
phenotypic distance ([8]; 111.1 nM): 0.95
phenotypic distance ([8]; 333.3 nM): 2.46
phenotypic distance ([8]; 1000 nM): 2.82
phenotypic distance ([8]; 3000 nM): 5.02
phenotypic distance ([9]; 4.1 nM): 0.646
phenotypic distance ([9]; 12.3 nM): 1.28
phenotypic distance ([9]; 37 nM): 1.04
phenotypic distance ([9]; 111.1 nM): 1.87
phenotypic distance ([9]; 333.3 nM): 3.3
phenotypic distance ([9]; 1000 nM): 4.9
phenotypic distance ([9]; 3000 nM): 7.15
phenotypic distance ([10]; 4.1 nM): 0.671
phenotypic distance ([10]; 12.3 nM): 0.89
phenotypic distance ([10]; 37 nM): 1
phenotypic distance ([10]; 111.1 nM): 0.848
phenotypic distance ([10]; 333.3 nM): 1.21
phenotypic distance ([10]; 1000 nM): 1.81
phenotypic distance ([10]; 3000 nM): 3.73
phenotypic distance ([11]; 4.1 nM): 1.03
phenotypic distance ([11]; 12.3 nM): 0.622
phenotypic distance ([11]; 37 nM): 0.999
phenotypic distance ([11]; 111.1 nM): 1.08
phenotypic distance ([11]; 333.3 nM): 1.4
phenotypic distance ([11]; 1000 nM): 2.35
phenotypic distance ([11]; 3000 nM): 5.2
phenotypic distance ([12]; 4.1 nM): 0.455
phenotypic distance ([12]; 12.3 nM): 0.707
phenotypic distance ([12]; 37 nM): 0.662
phenotypic distance ([12]; 111.1 nM): 0.809
phenotypic distance ([12]; 333.3 nM): 1.12
phenotypic distance ([12]; 1000 nM): 2.2
phenotypic distance ([12]; 3000 nM): 3.18
phenotypic distance ([13]; 4.1 nM): 0.712
phenotypic distance ([13]; 12.3 nM): 0.801
phenotypic distance ([13]; 37 nM): 1.2
phenotypic distance ([13]; 111.1 nM): 1.96
phenotypic distance ([13]; 333.3 nM): 3.18
phenotypic distance ([13]; 1000 nM): 5.55
phenotypic distance ([13]; 3000 nM): 6.09
phenotypic distance ([14]; 4.1 nM): 0.821
phenotypic distance ([14]; 12.3 nM): 1.13
phenotypic distance ([14]; 37 nM): 0.941
phenotypic distance ([14]; 111.1 nM): 1.28
phenotypic distance ([14]; 333.3 nM): 1.37
phenotypic distance ([14]; 1000 nM): 1.95
phenotypic distance ([14]; 3000 nM): 2.95

CC(=O)c1cnc2ccc(-c3cc(Cl)c(O)c(Cl)c3)nc2c1N[C@H]1CC[C@H](CN(C)C)CC1 [OTSSP167]
surviving fraction ([1]; 0.4 nM): 0.96 ± 0.06
surviving fraction ([1]; 1.2 nM): 0.925 ± 0.12
surviving fraction ([1]; 3.7 nM): 0.908 ± 0.017
surviving fraction ([1]; 11.1 nM): 0.685 ± 0.053
surviving fraction ([1]; 33.3 nM): 0.422 ± 0.024
surviving fraction ([1]; 100 nM): 0.205 ± 0.014
surviving fraction ([1]; 300 nM): 0.1423 ± 0.00064
surviving fraction ([2]; 0.4 nM): 0.988 ± 0.14
surviving fraction ([2]; 1.2 nM): 1.09 ± 0.052
surviving fraction ([2]; 3.7 nM): 0.945 ± 0.04
surviving fraction ([2]; 11.1 nM): 0.737 ± 0.1
surviving fraction ([2]; 33.3 nM): 0.546 ± 0.034
surviving fraction ([2]; 100 nM): 0.317 ± 0.0045
surviving fraction ([2]; 300 nM): 0.161 ± 0.039
surviving fraction ([3]; 0.4 nM): 1.04 ± 0.15
surviving fraction ([3]; 1.2 nM): 1.21 ± 0.084
surviving fraction ([3]; 3.7 nM): 1.16 ± 0.014
surviving fraction ([3]; 11.1 nM): 0.994 ± 0.16
surviving fraction ([3]; 33.3 nM): 0.575 ± 0.0076
surviving fraction ([3]; 100 nM): 0.247 ± 0.07
surviving fraction ([3]; 300 nM): 0.233 ± 0.032
surviving fraction ([4]; 0.4 nM): 0.94 ± 0.024
surviving fraction ([4]; 1.2 nM): 0.896 ± 0.042
surviving fraction ([4]; 3.7 nM): 1.02 ± 0.073
surviving fraction ([4]; 11.1 nM): 0.913 ± 0.055
surviving fraction ([4]; 33.3 nM): 0.59 ± 0.046
surviving fraction ([4]; 100 nM): 0.196 ± 0.02
surviving fraction ([4]; 300 nM): 0.0607 ± 0.0042
surviving fraction ([5]; 0.4 nM): 1 ± 0.055
surviving fraction ([5]; 1.2 nM): 0.983 ± 0.031
surviving fraction ([5]; 3.7 nM): 0.947 ± 0.15
surviving fraction ([5]; 11.1 nM): 0.748 ± 0.15
surviving fraction ([5]; 33.3 nM): 0.535 ± 0.083
surviving fraction ([5]; 100 nM): 0.567 ± 0.021
surviving fraction ([5]; 300 nM): 0.384 ± 0.061
surviving fraction ([6]; 0.4 nM): 1.43 ± 0.017
surviving fraction ([6]; 1.2 nM): 1.46 ± 0.088
surviving fraction ([6]; 3.7 nM): 1.48 ± 0.057
surviving fraction ([6]; 11.1 nM): 1.23 ± 0.19
surviving fraction ([6]; 33.3 nM): 0.626 ± 0.052
surviving fraction ([6]; 100 nM): 0.171 ± 0.0094
surviving fraction ([6]; 300 nM): 0.108 ± 0.014
surviving fraction ([7]; 0.4 nM): 1.13 ± 0.11
surviving fraction ([7]; 1.2 nM): 1.2 ± 0.052
surviving fraction ([7]; 3.7 nM): 1.08 ± 0.096
surviving fraction ([7]; 11.1 nM): 0.783 ± 0.13
surviving fraction ([7]; 33.3 nM): 0.638 ± 0.024
surviving fraction ([7]; 100 nM): 0.502 ± 0.022
surviving fraction ([7]; 300 nM): 0.45 ± 0.087
phenotypic distance ([8]; 0.4 nM): 1.66 ± 1
phenotypic distance ([8]; 1.2 nM): 1.67 ± 0.18
phenotypic distance ([8]; 3.7 nM): 2.455 ± 0.011
phenotypic distance ([8]; 11.1 nM): 3.33 ± 0.64
phenotypic distance ([8]; 33.3 nM): 6.59 ± 0.11
phenotypic distance ([8]; 100 nM): 7.76 ± 0.18
phenotypic distance ([8]; 300 nM): 8.64 ± 0.25
phenotypic distance ([9]; 0.4 nM): 1.7 ± 0.33
phenotypic distance ([9]; 1.2 nM): 2.06 ± 0.15
phenotypic distance ([9]; 3.7 nM): 2.41 ± 0.065
phenotypic distance ([9]; 11.1 nM): 2.49 ± 0.12
phenotypic distance ([9]; 33.3 nM): 4.22 ± 0.35
phenotypic distance ([9]; 100 nM): 4.87 ± 0.3
phenotypic distance ([9]; 300 nM): 6.25 ± 0.65
phenotypic distance ([10]; 0.4 nM): 1.32 ± 0.36
phenotypic distance ([10]; 1.2 nM): 1.49 ± 0.21
phenotypic distance ([10]; 3.7 nM): 1.75 ± 0.072
phenotypic distance ([10]; 11.1 nM): 2.62 ± 0.37
phenotypic distance ([10]; 33.3 nM): 4.37 ± 0.37
phenotypic distance ([10]; 100 nM): 4.36 ± 0.64
phenotypic distance ([10]; 300 nM): 4.295 ± 0.011
phenotypic distance ([11]; 0.4 nM): 1.92 ± 0.57
phenotypic distance ([11]; 1.2 nM): 2.29 ± 0.21
phenotypic distance ([11]; 3.7 nM): 2.8 ± 0.15
phenotypic distance ([11]; 11.1 nM): 2.81 ± 0.06
phenotypic distance ([11]; 33.3 nM): 2.5 ± 0.18
phenotypic distance ([11]; 100 nM): 5.33 ± 0.78
phenotypic distance ([11]; 300 nM): 7.69 ± 2.1
phenotypic distance ([12]; 0.4 nM): 1.46 ± 0.39
phenotypic distance ([12]; 1.2 nM): 1.96 ± 1
phenotypic distance ([12]; 3.7 nM): 1.73 ± 0.11
phenotypic distance ([12]; 11.1 nM): 2.43 ± 0.65
phenotypic distance ([12]; 33.3 nM): 3.89 ± 0.15
phenotypic distance ([12]; 100 nM): 2.89 ± 0.067
phenotypic distance ([12]; 300 nM): 2.9 ± 0.41
phenotypic distance ([13]; 0.4 nM): 1.81 ± 0.58
phenotypic distance ([13]; 1.2 nM): 2.24 ± 0.063
phenotypic distance ([13]; 3.7 nM): 2.97 ± 0.38
phenotypic distance ([13]; 11.1 nM): 3.48 ± 0.47
phenotypic distance ([13]; 33.3 nM): 4.61 ± 0.12
phenotypic distance ([13]; 100 nM): 7.8122 ± 0.0049
phenotypic distance ([13]; 300 nM): 5.83 ± 0.19
phenotypic distance ([14]; 0.4 nM): 2.21 ± 0.61
phenotypic distance ([14]; 1.2 nM): 2.77 ± 0.063
phenotypic distance ([14]; 3.7 nM): 3.26 ± 0.47
phenotypic distance ([14]; 11.1 nM): 3.53 ± 0.41
phenotypic distance ([14]; 33.3 nM): 4.08 ± 0.32
phenotypic distance ([14]; 100 nM): 4.14 ± 0.28
phenotypic distance ([14]; 300 nM): 3.137 ± 0.02
